Measurements from patent US9062041B2 (Bayer Intellectual Property GmbH, priority 2011, dated 2015).

Columns and labels:
[1] = target: EP4 subtype of the human PGE2 receptor (Homo sapiens, UniProt P35408); test: cAMP antagonism test on the human EP4 receptor (HTRF cAMP detection); assay type: cell-based; conditions: selectivity towards hEP4, IC50 measured by cAMP antagonism test
Outline: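 Cells expressing human EP4 preincubated 20 min at RT with compound (0.8 nM–16.5 μM), then stimulated with PGE2 (0.3 nM in 3× solution, with IBMX) 60 min at RT. After lysis, cAMP measured by HTRF competition (665/620 nm ratio); antagonism seen as rise in FRET signal.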

[2] = target: EP2 subtype of the human PGE2 receptor (Homo sapiens, UniProt P43116); test: cAMP antagonism test on the human EP2 receptor (HTRF cAMP detection); assay type: cell-based; conditions: hEP2 receptor, read-out: Antagonism hEP2 IC50
Outline: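 Cells expressing human EP2 preincubated 20 min at RT with compound (0.8 nM–16.5 μM), then stimulated 60 min with PGE2 (3× solution 1.5 nM) in PBS-IBMX. After 20 min lysis, cAMP measured by competitive HTRF with cAMP-d2 and Eu cryptate anti-cAMP antibody (665/620 nm ratio).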

human PGD receptor = target: T1, human PGD receptor (Homo sapiens, UniProt Q13258); test: cAMP antagonism test on the human prostaglandin D receptor (HTRF cAMP detection); assay type: cell-based; conditions: selectivity towards hDP, IC50 measured by cAMP antagonism test
T1 sequence (Q13258 1-359): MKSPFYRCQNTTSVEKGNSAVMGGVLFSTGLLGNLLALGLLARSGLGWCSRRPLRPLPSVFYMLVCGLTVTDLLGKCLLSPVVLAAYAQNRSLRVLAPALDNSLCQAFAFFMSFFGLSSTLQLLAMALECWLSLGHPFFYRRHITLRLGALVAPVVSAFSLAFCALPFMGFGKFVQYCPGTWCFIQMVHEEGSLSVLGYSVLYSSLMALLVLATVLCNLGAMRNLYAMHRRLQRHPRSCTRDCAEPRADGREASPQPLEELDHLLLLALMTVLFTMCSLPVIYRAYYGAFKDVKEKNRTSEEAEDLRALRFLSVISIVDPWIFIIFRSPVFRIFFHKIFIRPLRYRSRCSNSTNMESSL
Outline: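 Cells pre-mixed with cAMP-d2 were preincubated with compound (0.8 nM–16.5 μM) for 20 min at RT, then stimulated with 3× PGD2 solution (6 nM, in PBS-IBMX) for 30 min at RT. After lysis (20 min), HTRF read at 665/620 nm; antagonism seen as rise in FRET ratio.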

cumulus-oocyte complexes = test: Cumulus expansion test in vitro; assay type: cell-based, mice (strain: B6D2F1); conditions: for inhibition at 1 µM / inhibition at 0.5 µM: Mus musculus, 0.3 μM PGE2 for stimulation; for inhibition at 1 µM: read-out: % reduction at 1 μM (reduction in the cumulus expansion); for inhibition at 0.5 µM: read-out: % reduction at 0.5 μm (reduction in the cumulus expansion)
Description: 4.2. Cumulus Expansions Test In Vitro In immature female mice (strain: B6D2F1 from Charles River), at an age of 14-18 days, the folliculogenesis was induced by a single administration (intraperitoneal) of 10 IU of PMSG (pregnant mare serum gonadotropin; Sigma G-4877, Lot 68H0909). 47-50 hours after the injection, the ovaries were removed and the cumulus-oocyte complexes removed. At this stage, the cumulus complex is not yet expanded. The cumulus-oocyte complexes were now incubated for 20-24 hours with prostaglandin E2 (PGE) (0.3 μM), vehicle control (ethanol) or test substances. Medium: alpha-MEM medium with 0.1 mM IBMX, pyruvate (0.23 mM), glutamine (2 mM), pen/strep 100 IU/ml pen. and 100 μg/ml strep.), HSA (8 mg/ml) and foetal bovine serum (FBS, 10%). The cumulus expansion was then established through the subdivision into four stages (after Vanderhyden et al. Dev Biol. 1990 August; 140(2):307-317).

Chain of EP4 subtype of the human PGE2 receptor (P35408 whole entry): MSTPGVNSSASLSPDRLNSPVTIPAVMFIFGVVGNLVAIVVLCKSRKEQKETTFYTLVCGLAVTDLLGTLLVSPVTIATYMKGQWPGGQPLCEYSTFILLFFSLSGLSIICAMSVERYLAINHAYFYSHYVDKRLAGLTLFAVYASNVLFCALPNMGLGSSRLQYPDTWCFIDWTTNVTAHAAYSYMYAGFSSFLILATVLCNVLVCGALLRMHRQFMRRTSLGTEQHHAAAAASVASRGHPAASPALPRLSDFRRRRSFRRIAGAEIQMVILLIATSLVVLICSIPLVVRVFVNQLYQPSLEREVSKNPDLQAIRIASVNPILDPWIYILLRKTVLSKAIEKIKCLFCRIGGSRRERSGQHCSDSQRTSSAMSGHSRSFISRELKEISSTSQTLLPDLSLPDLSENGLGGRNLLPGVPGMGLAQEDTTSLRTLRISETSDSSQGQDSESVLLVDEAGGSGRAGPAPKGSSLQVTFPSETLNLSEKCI
Chain of EP2 subtype of the human PGE2 receptor (P43116 whole entry): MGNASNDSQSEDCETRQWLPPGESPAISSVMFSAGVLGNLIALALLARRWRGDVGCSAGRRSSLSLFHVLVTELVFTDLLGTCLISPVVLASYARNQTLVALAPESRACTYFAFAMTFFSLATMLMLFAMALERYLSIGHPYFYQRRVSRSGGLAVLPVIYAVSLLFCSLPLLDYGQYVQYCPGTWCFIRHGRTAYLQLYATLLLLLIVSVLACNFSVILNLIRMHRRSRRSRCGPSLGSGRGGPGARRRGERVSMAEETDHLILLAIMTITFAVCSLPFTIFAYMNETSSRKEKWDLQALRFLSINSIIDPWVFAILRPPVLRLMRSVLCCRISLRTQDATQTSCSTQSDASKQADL

Structure (SMILES)	Selectivity hEP2/hEP4 [1]	IC50 [2] [nM]	Selectivity hEP2/hDP (human PGD receptor)	inhibition at 1 µM (cumulus-oocyte complexes) [%]	inhibition at 0.5 µM (cumulus-oocyte complexes) [%]	suppression of the cumulus expansion (cumulus-oocyte complexes; concentration of 100-200 μM, PGE2 0.3 μM)
Cc1c(C(=O)NCC(F)(F)F)ccc2nn(CC3CCN(C(=O)c4ccc(Oc5ccc(C(F)(F)F)cc5)cc4)CC3)cc12 [Example 291, 4-methyl-N-(2,2,2-trifluoroethyl)-2-[(1-{4-[4-(trifluoromethyl)phenoxy]-benzoyl}piperidin-4-yl)methyl]-2H-indazol-5-carboxamide]	xxx (xxx > 100)	5.94	xxx (xxx > 100)	73	76	
COCCNC(=O)c1ccc2nn(CC3CCN(C(=O)c4ccc(Oc5ccc(C(F)(F)F)cn5)cc4)CC3)cc2c1C [Example 345, N-(2-methoxyethyl)-4-methyl-2-{[1-(4-{[5-(trifluoromethyl)pyridin-2-yl]oxy}-benzoyl)piperidin-4-yl]methyl}-2H-indazol-5-carboxamide]	xxx (xxx > 100)	6.26	xxx (xxx > 100)	36	18	
Cc1c(C(=O)NCC(F)(F)F)ccc2nn(CC3CCN(C(=O)c4ccc(Oc5ccc(C(F)(F)F)nc5)cc4)CC3)cc12 [Example 303, 4-methyl-N-(2,2,2-trifluoroethyl)-2-{[1-(4-{[6-(trifluoromethyl)pyridin-3-yl]-oxy}benzoyl)piperidin-4-yl]methyl}-2H-indazol-5-carboxamide]	xxx (xxx > 100)	13.9	xxx (xxx > 100)	47	38	
CC(C)Oc1ccc2c(=O)c3cc(C(=O)O)ccc3oc2c1 [AH6809, reference compound]						ca. 30%
Cc1c(C(=O)NCC(F)(F)F)ccc2nn(CC3CCN(C(=O)c4ccc(-c5ccc(F)cn5)cc4)CC3)cc12 [Example 325, 2-({1-[4-(5-fluoropyridin-2-yl)benzoyl]piperidin-4-yl}methyl)-4-methyl-N-(2,2,2-trifluoroethyl)-2H-indazol-5-carboxamide]	xx (xx: 10-100)	321	xx (xx: 10-100)			
O=C(NCCOCC1CC1)c1ccc2nn(CC3CCN(C(=O)c4ccc(Oc5ccc(F)cc5)cc4)CC3)cc2c1OCC(F)(F)F [Example 236, N-[2-(cyclopropylmethoxy)ethyl]-2-({1-[4-(4-fluorophenoxy)benzoyl]piperidin-4-yl}methyl)-4-(2,2,2-trifluoroethoxy)-2H-indazol-5-carboxamide]	xxx (xxx > 100)	57.5	xxx (xxx > 100)			
Cc1c(C(=O)NCC2CC2)ccc2nn(CC3CCN(C(=O)c4ccc(Oc5ccc(C(F)(F)F)cc5)cc4)CC3)cc12 [Example 406, N-(cyclopropylmethyl)-4-methyl-2-[(1-{4-[4-(trifluoromethyl)phenoxy]-benzoyl}piperidin-4-yl)methyl]-2H-indazol-5-carboxamide]	xxx (xxx > 100)	8.19	xxx (xxx > 100)			
Cc1c(C(=O)NCC2CC2)ccc2nn(CC3CCN(C(=O)c4ccc(Cl)cc4)CC3)cc12 [Example 402, 2-{[1-(4-chlorobenzoyl)piperidin-4-yl]methyl}-N-(cyclopropylmethyl)-4-methyl-2H-indazol-5-carboxamide]	xxx (xxx > 100)	77.7	xxx (xxx > 100)			
Cc1c(C(=O)NCCO)ccc2nn(CC3CCN(C(=O)c4ccc(Cl)cc4)CC3)cc12 [Example 252, 2-{[1-(4-chlorobenzoyl)piperidin-4-yl]methyl}-N-(2-hydroxyethyl)-4-methyl-2H-indazol-5-carboxamide]	xx (xx: 10-100)	295	xx (xx: 10-100)			
Cc1c(C(=O)NCCC#N)ccc2nn(CC3CCN(C(=O)c4ccc(Oc5ccc(C(F)(F)F)cc5)cc4)CC3)cc12 [Example 246, N-(2-cyanoethyl)-4-methyl-2-[(1-{4-[4-(trifluoromethyl)phenoxy]benzoyl}piperidin-4-yl)methyl]-2H-indazol-5-carboxamide]	xxx (xxx > 100)	9.23	xxx (xxx > 100)			
Cc1c(C(=O)NCCN2CCOCC2)ccc2nn(CC3CCN(C(=O)c4ccc(Oc5ccc(F)cc5)cc4)CC3)cc12 [Example 67, 2-({1-[4-(4-fluoro-phenoxy)benzoyl]-piperidin-4-yl}-methyl)-4-methyl-N-(2-morpholinoethyl)-2H-indazol-5-carboxamide]	xx (xx: 10-100)	405	xx (xx: 10-100)			
COCCNC(=O)c1ccc2nn(CC3CN(C(=O)c4cn(C)c5ccccc45)C3)cc2c1C [Example 282, N-(2-methoxyethyl)-4-methyl-2-({1-[(1-methyl-1H-indol-3-yl)carbonyl]azetidin-3-yl}methyl)-2H-indazol-5-carboxamide]	xxx (xxx > 100)	20.1	xxx (xxx > 100)			
COCCNC(=O)c1ccc2nn(CC3CCN(C(=O)c4cnc(-c5ccccc5)o4)CC3)cc2c1C [Example 339, N-(2-methoxyethyl)-4-methyl-2-({1-[(2-phenyloxazol-5-yl)carbonyl]piperidin-4-yl}methyl)-2H-indazol-5-carboxamide]	xxx (xxx > 100)	7.15	xxx (xxx > 100)			
COCCNC(=O)c1ccc2nn(CC3CCN(C(=O)c4ccc(C(F)(F)F)cc4)CC3)cc2c1C [Example 23, N-(2-methoxyethyl)-4-methyl-2-({1-[4-(trifluoromethyl)-benzoyl]piperidin-4-yl}methyl)-2H-indazol-5-carboxamide]	xxx (xxx > 100)	16.1	xxx (xxx > 100)			
Cc1c(C(=O)NCC2COCCO2)ccc2nn(CC3CN(C(=O)c4ccc(Cl)cc4)C3)cc12 (racemic) [Example 141, (+/−)-2-{[1-(4-chlorobenzoyl)azetidin-3-yl]methyl}-N-(1,4-dioxan-2-ylmethyl)-4-methyl-2H-indazol-5-carboxamide]	xxx (xxx > 100)	143	xxx (xxx > 100)			
COCCNC(=O)c1ccc2nn(CC3CCN(C(=O)c4ccc(N5CCOCC5)cc4F)CC3)cc2c1C [Example 53, 2-{[1-(2-fluoro-4-morpholinobenzoyl)-piperidin-4-yl]-methyl}-N-(2-methoxyethyl)-4-methyl-2H-indazol-5-carboxamide]	xxx (xxx > 100)	44.2	xxx (xxx > 100)			
COCCNC(=O)c1ccc2nn(CC3CCN(C(=O)c4ccc(OC(F)(F)F)cc4)CC3)cc2c1OC [Example 266, 4-methoxy-N-(2-methoxyethyl)-2-({1-[4-(trifluoromethoxy)benzoyl]piperidin-4-yl}methyl)-2H-indazol-5-carboxamide]	xxx (xxx > 100)	18.9	xxx (xxx > 100)			
Cc1c(C(=O)NCC(F)(F)F)ccc2nn(CC3CCN(C(=O)c4ccc(-c5ccc(Cl)cn5)cc4)CC3)cc12 [Example 317, 2-({1-[4-(5-chloropyridin-2-yl)benzoyl]piperidin-4-yl}methyl)-4-methyl-N-(2,2,2-trifluoroethyl)-2H-indazol-5-carboxamide]	xx (xx: 10-100)	181	xx (xx: 10-100)			
